Experimental data taken from patent US20060041013A1, “Alanosine formulations and methods of use” (priority 2004, published 2006).
Like-named read-outs stand apart in the source and are kept apart here.

Experiments:
[1] = Temperature and pH effects on stability (5 days at 5° C. or 80° C.); format: physicochemical; settings: for osmolality: about 20 mg/mL
Protocol: Stability studies were then performed at different pHs. […] The pH of the solution was then adjusted in increments of 0.5 using 1N NaOH. Stability measurements of two duplicate samples were taken at each increment, beginning at pH 6.5 up through pH 9.0, and one sample was taken at pH 12.2. One set of samples was stored at 5° C., the other at 80° C., for five days, after which they were analyzed for pH, physical appearance, osmolality, and impurities. […] Here, impurities were determined by reverse phase HPLC as described herein.

[2] = format: physicochemical; settings: for Amount degraded/day (%) / Predicted purity after 2 years: Arrhenius analysis
Protocol: An Arrhenius analysis was performed to predict the loss of potency and increase in degradation products over time for commonly used storage temperatures for many drugs. […] Sets of the different solutions were then placed at 40° C., 50° C., or 60° C., and samples were taken every ten days over a 60 day period. […] Specifically, these plots show a distinct difference in purity as a function of pH and temperature. […] In the pH 7.5 formulation, there was more of each of these four impurities as compared to the pH 8.5 formulation. The impurity at RRT 0.32 formed readily as a function of temperature and pH. The impurities at RRTs 0.43 and 0.46 also formed as a function of temperature and pH, but not as readily.
Indeed, the purity of the samples is similar at pH 8.5 and 9.0. […] The trends in the data shown in FIG. 5 allow an Arrhenius analysis to be performed to predict changes in purity over time at various temperatures, particularly 5° C. and 25° C. Linear regression was used to determine the positions of the lines shown in FIG. 5, which then allowed the slope of the lines (i.e., the reaction rates, per day) to be determined for each pH and a given temperature. Arrhenius plots were the generated for each of pHs 7.5, 8.5 and 9.0 from the reaction rate versus the inverse temperatures. These plots are shown in FIG. 7, which allow the equation of the lines for each of three liquid formulations to be calculated. From these equations, the purity of any given temperature for a particular formulation at a given time can be predicted.
The HPLC system (Waters Corp., model 2690 Gradient HLPC System) employed a 4.6 mm×250 mm column (MetaChem Inc.) containing 5 μm particles (Inertsil ODS-3) as the stationary phase. The system was equipped with a UV/VIS detector (Waters Corp., model 996) set to 226 nm to monitor products being eluted from the column. Data generated from the column was managed on a personal computer running Empower Software (Waters Corp.). After preparation, the column was washed with at least 100 mL of water/acetonitrile (90:10, v/v), and stored at ambient temperature in the same solution.
In each HPLC run, the mobile phase, flowing at 1.0 mL/min., comprised 7.0 g of anhydrous monobasic potassium phosphate (KH2PO4; JT Baker) dissolved in 1000 mL H2O (at least HPLC grade). The pH of the solution was adjusted to 2.5 using phosphoric acid (85%, Fisher Scientific). 2.4 g of 1-decane sulfonic acid, sodium salt (Avocado Research Chemicals) was then mixed into the solution. 50 mL of acetonitrile (HPLC Grade, Burdick & Jackson) was then mixed with 950 mL of this solution. This mixture was then degassed by filtering through Durapore membrane filters, 0.45 μm, Type HVLP, under vacuum. The column flow rate was set at 1.0 mL/min.
Diluent was prepared by dissolving 3.5 g KH2PO4 and 3.5 g (Na2HPO4, Mallincrodt) in 1000 mL of HPLC grade H2O. […] Once prepared, an alanosine standard solution was stored at ambient temperature and retained for no more than seven days.
In addition to an alanosine standard solution, a sensitivity standard was also prepared by diluting 1 mL of the alanosine standard solution 1:100 using diluent.
HPLC runs were performed after the column had equilibrated for at least three hours in the mobile phase at room temperature. Column suitability was assessed at the beginning and end of each series of experiment as follows. Initially, two 10 μL aliquots of diluent were injected onto the column in duplicate, and the chromatographs recorded and examined.

A-594 = experiment: Intracellular ATP levels (Cell-Titer Glow); format: cell-based; settings: 72 h; A-594, NSCLC, MTAP Negative; 3 day treatment
Protocol: (§1) MTAP status was determined using immunoblot analyses and correlated with the ability of an MTA analog to rescue ATP levels in cell lines treated with SDX-102. ATP levels were measured using Cell-Titer Glow™ (Promega) after a 3 day treatment with titrated concentrations of either SDX-102 or pemetrexed.

BxPC3 [3] = experiment: Intracellular ATP levels (Cell-Titer Glow); format: cell-based; settings: Homo sapiens, BXPC-3, 72 h; BxPC3, Pancreatic, MTAP Negative; 3 day treatment
Protocol: as §1

NCI-H2452 = experiment: Intracellular ATP levels (Cell-Titer Glow); format: cell-based; settings: Homo sapiens, 72 h; NCI-H2452, Mesothelioma, MTAP Negative; 3 day treatment; read-out: ATP IC50
Protocol: as §1

BxPC3 [4] = experiment: Cell viability MTT assay (Example 3); format: cell-based; settings: Homo sapiens, BXPC-3, 72 h; BxPC3, Pancreatic, MTAP Negative; 3 days
A549 = experiment: Docetaxel, 5-FU, SDX-102 alone or combined, MTT/MTS cytotoxicity (Example 4); format: cell-based; settings: Homo sapiens; A549, NSCLC, single agent, MTT 72 hours
A549 NSCLC xenografts = experiment: MTAP-negative A549 NSCLC xenografts in SCID mice; format: in vivo; settings: 60 days monitoring, doses as administered

NC(CN(O)N=O)C(=O)O [L-alanosine, L(−)-2-amino-3-nitrosohydroxylaminopropionic acid]
impurities as a function of pH ([1]; 80° C. five days, pH 6.5-12.2, HPLC): inverse relationship between the amount of impurities and pH
osmolality ([1]; pH 6.5, stored at 5° C. five days): 225 mOsm
osmolality ([1]; pH 6.5, stored at 80° C. five days): 247 mOsm
osmolality ([1]; pH 8.0, stored at 5° C. five days): 272 mOsm
osmolality ([1]; pH 8.0, stored at 80° C. five days): 273 mOsm
Amount degraded/day (%) ([2]; 20 mg/mL, pH 7.5, 5° C.): 0.000374%
Predicted purity after 2 years ([2]; 20 mg/mL, pH 7.5, 5° C.): 99.727%
Amount degraded/day (%) ([2]; 20 mg/mL, pH 7.5, 25° C.): 0.000601%
Predicted purity after 2 years ([2]; 20 mg/mL, pH 7.5, 25° C.): 99.561%
Predicted purity after 2 years ([2]; 20 mg/mL, pH 8.5, 5° C.): 99.985%
Predicted purity after 2 years ([2]; 20 mg/mL, pH 8.5, 25° C.): 99.930%
calculated purity ([2]; 20 mg/mL, pH 8.5-9.0, stored at 25° C., at least two years): more than 99.9%
Predicted purity after 2 years ([2]; 20 mg/mL, pH 9.0, 5° C.): 100.00%
Predicted purity after 2 years ([2]; 20 mg/mL, pH 9.0, 25° C.): 100.00%
trend in purity over 60 days ([2]; solutions pH 7.5, 8.5, 9.0 stored at 40° C.): no trend in decreased purity
IC50 (A-594): 0.3 µM
IC50 (BxPC3 [3]): 0.6 µM
IC50 (NCI-H2452): 0.4 µM
IC50 (BxPC3 [4]): 6 µM
IC50 (A549): 0.3 ± 0.1 µM
tumor growth inhibition (A549 NSCLC xenografts): did not induce tumor growth inhibition
